For 26 molecules, IC50 results are on record in patent publication US20260258064A1 (SIRONAX LTD., priority 2023, published 2026).

A value given as a limit tells only on which side of the number the result lay.

This assay concerns the target T1, SARM1 (50-724) (Homo sapiens, UniProt Q6SZW1).
T1 construct: Purified SARM1 (50-724) with a final concentration of 2 nM was pre-incubated with a test compound
T1 sequence (Q6SZW1 50-724): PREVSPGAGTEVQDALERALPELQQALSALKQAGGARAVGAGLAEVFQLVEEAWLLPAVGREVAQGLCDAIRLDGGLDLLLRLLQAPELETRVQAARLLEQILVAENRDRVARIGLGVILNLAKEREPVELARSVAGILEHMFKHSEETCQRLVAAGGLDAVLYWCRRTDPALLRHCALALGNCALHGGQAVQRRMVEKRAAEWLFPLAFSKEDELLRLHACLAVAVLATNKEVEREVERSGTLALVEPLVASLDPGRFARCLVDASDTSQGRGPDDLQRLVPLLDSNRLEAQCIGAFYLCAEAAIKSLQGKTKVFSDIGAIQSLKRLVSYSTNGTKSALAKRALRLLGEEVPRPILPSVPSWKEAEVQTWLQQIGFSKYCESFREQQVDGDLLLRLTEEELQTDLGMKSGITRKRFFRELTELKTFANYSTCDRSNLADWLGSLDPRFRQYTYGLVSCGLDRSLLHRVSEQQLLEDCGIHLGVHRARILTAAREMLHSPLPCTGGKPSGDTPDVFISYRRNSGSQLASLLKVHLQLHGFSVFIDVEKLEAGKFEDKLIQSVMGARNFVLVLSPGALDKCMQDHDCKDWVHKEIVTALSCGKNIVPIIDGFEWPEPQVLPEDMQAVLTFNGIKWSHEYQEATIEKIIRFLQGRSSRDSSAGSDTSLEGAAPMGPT
Nature of the assay: SARM1 (50-724) enzymatic assay (LC-MS/MS). It is filed as biochemical. To be noted: Purified SARM1 (50-724) 2 nM, NMN as activator, NAD+ as substrate, 1 h at room temperature, read-out: IC50 (SARM1 inhibitory activity). The method in brief:
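Human SARM1 (50-724), 2 nM, pre-incubated 15 min at room temperature with compound in Dulbecco's PBS. Reaction started with 200 µM NMN (activator) plus […] NAD^+ substrate, run 1 h at room temperature, quenched with 70% acetonitrile. Turnover quantified by LC-MS/MS; IC50 reported.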
Take `OC1(c2ccc3[nH]c(-c4nncn4-c4cccc(Cl)c4Cl)nc3c2)CCC1` [Example 111]: the IC50 – broadly, the midpoint of a concentration-inhibition curve – is at most 100 nM.
Take `COc1ccc(Cl)c(-n2cnnc2-c2nc3cc(C(F)(F)F)ccc3[nH]2)n1` [Example 114]: the IC50 is at most 100 nM.
Consider `Cn1ncc(C(F)(F)F)c1-n1cnnc1-c1nc2cc(C(F)(F)F)ccc2[nH]1` [Compound 257, 2-(4-(1-methyl-4-(trifluoromethyl)-1H-pyrazol-5-yl)-4H-1,2,4-triazol-3-yl)-5-(trifluoromethyl)-1H-benzo[d]imidazole], for which the IC50 is at most 100 nM.
The result for `Clc1cccc(-n2cnnc2-c2nc3cc(-c4ccn[nH]4)ccc3[nH]2)c1Cl` [Example 68, 2-(4-(2,3-dichlorophenyl)-4H-1,2,4-triazol-3-yl)-5-(1H-pyrazol-5-yl)-1H-benzo[d]imidazole] reads at most 100 nM; that for `CS(=O)(=O)Cc1nnc(-c2nc3cc(C(F)(F)F)cc(F)c3[nH]2)n1-c1cccc(F)c1Cl` (single isomer, unassigned) [Compound 183, 2-(4-(2-Chloro-3-fluorophenyl)-5-((methylsulfonyl)methyl)-4H-1,2,4-triazol-3-yl)-7-fluoro-5-(trifluoromethyl)-1H-benzo[d]imidazole], 100 to 500 nM.
For the molecule `FC(F)(F)Oc1cnccc1-n1cnnc1-c1nc2cc(C34CC(C3)C4)ccc2[nH]1` [Compound 223, 5-(bicyclo[1.1.1]pentan-1-yl)-2-(4-(3-(trifluoromethoxy)pyridin-4-yl)-4H-1,2,4-triazol-3-yl)-1H-benzo[d]imidazole], the IC50 was at most 100 nM.
`FC(F)(F)c1ccc2[nH]c(-c3nncn3-c3cnccc3C(F)(F)F)c(-c3ccccn3)c2c1` [Compound 390, 3-(pyridin-2-yl)-5-(trifluoromethyl)-2-(4-(4-(trifluoromethyl)pyridin-3-yl)-4H-1,2,4-triazol-3-yl)-1H-indole]: the 50% inhibitory concentration (IC50) is at most 100 nM.
For `CC1CCN(c2cc(F)c3[nH]c(-c4nncn4-c4cnccc4C(F)(F)F)nc3c2)C1` (centres unmarked) [Compound 436, 4-fluoro-6-(3-methylpyrrolidin-1-yl)-2-(4-(4-(trifluoromethyl)pyridin-3-yl)-4H-1,2,4-triazol-3-yl)-1H-benzo[d]imidazole], the half-maximal inhibitory concentration (IC50) was at most 100 nM.
Consider `Cn1cc(-c2cnccc2C(F)(F)F)c(-c2nc3cc(C(F)(F)F)c(Cl)cc3[nH]2)cc1=O` [Compound 389, 4-(5-chloro-6-(trifluoromethyl)-1H-benzo[d]imidazol-2-yl)-1-methyl-4′-(trifluoromethyl)-[3,3′-bipyridin]-6(1H)-one], for which the IC50 was in the range of 100 to 500 nM.
As for `FC(F)(F)c1ccc2[nH]c(-c3scnc3-c3cccc(Cl)c3Cl)nc2c1` [Example 42], the concentration for half-maximal inhibition (IC50) was in the range of 500 to 1000 nM.
Consider `Cn1c(-n2cnnc2-c2nc3cc(C(F)(F)F)ccc3[nH]2)c(C(F)(F)F)ccc1=O` [Compound 284, 1-methyl-5-(trifluoromethyl)-6-(3-(5-(trifluoromethyl)-1H-benzo[d]imidazol-2-yl)-4H-1,2,4-triazol-4-yl)pyridin-2(1H)-one], for which the half-inhibitory concentration (IC50) is at most 100 nM.
The result for `FC(F)(F)c1ccc2[nH]c(-c3nnc(Cl)cc3-c3ccccc3Cl)nc2c1` [Compound 407, 2-(6-chloro-4-(2-chlorophenyl)pyridazin-3-yl)-5-(trifluoromethyl)-1H-benzo[d]imidazole] reads at most 100 nM; that for `COc1cc(-n2cnnc2-c2nc3cc(C(F)(F)F)ccc3[nH]2)c(OC(F)(F)F)cn1` [Compound 210, 2-(4-(2-methoxy-5-(trifluoromethoxy)pyridin-4-yl)-4H-1,2,4-triazol-3-yl)-5-(trifluoromethyl)-1H-benzo[d]imidazole], at most 100 nM; that for `CC(NC12CC(C1)C2)c1cc(F)c2[nH]c(-c3nncn3-c3cnccc3C(F)(F)F)nc2c1` (centres unmarked) [Compound 453, N-(1-(7-fluoro-2-(4-(4-(trifluoromethyl)pyridin-3-yl)-4H-1,2,4-triazol-3-yl)-1H-benzo[d]imidazol-5-yl)ethyl)bicyclo[1.1.1]pentan-1-amine], at most 100 nM.
For `CC(C)(O)COc1ccc(OC(F)(F)F)c(-n2cnnc2-c2nc3cc(C(F)(F)F)ccc3[nH]2)n1` [Compound 255, 2-methyl-1-((5-(trifluoromethoxy)-6-(3-(5-(trifluoromethyl)-1 H-benzo[d]imidazol-2-yl)-4H-1,2,4-triazol-4-yl)pyridin-2-yl)oxy)propan-2-ol], the IC50 was at most 100 nM.
As to `CS(=O)(=O)NCc1nnc(-c2nc3cc(C(F)(F)F)ccc3[nH]2)n1-c1cccc(Cl)c1Cl` [Compound 139, N-((4-(2,3-dichlorophenyl)-5-(5-(trifluoromethyl)-1H-benzo[d]imidazol-2-yl)-4H-1,2,4-triazol-3-yl)methyl)methanesulfonamide], the half-inhibitory concentration (IC50) was at most 100 nM.
On to `Cn1cc(-c2cccc(Cl)c2)c(-c2nc3cc(C(F)(F)F)ccc3[nH]2)cc1=O` [Example 76], for which the concentration for half-maximal inhibition (IC50) is over 1000 nM.
Consider `O=c1[nH]nc(-c2nc3cc(C(F)(F)F)ccc3[nH]2)n1-c1cccc(Cl)c1Cl` [Compound 36, 4-(2,3-dichlorophenyl)-5-(5-(trifluoromethyl)-1H-benzo[d]imidazol-2-yl)-2,4-dihydro-3H-1,2,4-triazol-3-one], for which the half-inhibitory concentration (IC50) was in the range of 100 to 500 nM.
For the molecule `FC(F)(F)c1ccc2[nH]c(-c3nnc(COC4COC4)n3-c3cccc(Cl)c3Cl)nc2c1` [Example 124], the half-maximal inhibitory concentration (IC50) is at most 100 nM.
Take `FC(F)(F)c1ccc2[nH]c(N3CCSCC3c3ccccc3)nc2c1` (centres unmarked) [Compound 319, 3-phenyl-4-(5-(trifluoromethyl)-1H-benzo[d]imidazol-2-yl)thiomorpholine]: the concentration for half-maximal inhibition (IC50) is over 1000 nM.
As for `FC(F)c1ccncc1-n1cnnc1-c1nc2cc(C(F)(F)F)ccc2[nH]1` [Compound 252, 2-(4-(4-(difluoromethyl)pyridin-3-yl)-4H-1,2,4-triazol-3-yl)-5-(trifluoromethyl)-1H-benzo[d]imidazole], the half-inhibitory concentration (IC50) is at most 100 nM.
Consider `Fc1cc(N2CCC2)cc2nc(-c3nncn3-c3cnccc3C(F)(F)F)[nH]c12` [Compound 301, 5-(azetidin-1-yl)-7-fluoro-2-(4-(4-(trifluoromethyl)pyridin-3-yl)-4H-1,2,4-triazol-3-yl)-1H-benzo[d]imidazole], for which the concentration for half-maximal inhibition (IC50) was in the range of 100 to 500 nM.
The value for `COC(C)(c1ccc2[nH]c(-c3nncn3-c3ccc(F)c(F)c3Cl)nc2c1)C1COC1` (centres unmarked) [Compound 150, 2-(4-(2-chloro-3,4-difluorophenyl)-4H-1,2,4-triazol-3-yl)-5-(1-methoxy-1-(oxetan-3-yl)ethyl)-1H-benzo[d]imidazole] was 100 to 500 nM.
The result for `CC1(c2ccc3[nH]c(-c4nncn4-c4cccc(F)c4Cl)nc3c2)CC(O)C1` (centres unmarked) [Compound 191, 3-(2-(4-(2-chloro-3-fluorophenyl)-4H-1,2,4-triazol-3-yl)-1H-benzo[d]imidazol-5-yl)-3-methylcyclobutan-1-ol] reads at most 100 nM; that for `FC(F)(F)Oc1cnc(CC2COC2)cc1-n1cnnc1-c1nc2cc(C(F)(F)F)ccc2[nH]1` [Compound 262, 2-(4-(2-(oxetan-3-ylmethyl)-5-(trifluoromethoxy)pyridin-4-yl)-4H-1,2,4-triazol-3-yl)-5-(trifluoromethyl)-1H-benzo[d]imidazole], at most 100 nM; that for `Cc1c(Cl)ccc2[nH]c(-c3nncn3-c3ccc(F)c(F)c3Cl)nc12` [Compound 164, 5-chloro-2-(4-(2-chloro-3,4-difluorophenyl)-4H-1,2,4-triazol-3-yl)-4-methyl-1H-benzo[d]imidazole], at most 100 nM.
